Laboratory results as given in US10544156B2, “Hemi-synthetic trilobine analogs for use as a drug” (PIERRE FABRE MEDICAMENT, priority 2015, dated 2020).
Read-outs that look alike come from different tables or passages of the source.

How the values were obtained:
[1] = biological target: T1, human C-terminal DNMT3A (623-908a.a.) (Homo sapiens, UniProt Q9Y6K1); assay: hDNMT3A assay (restriction-based fluorescence assay); format: biochemical; conditions: for inhibition at 10 µM: read-out: hDNMT 3A inhibition, Inhibition (%) 10 μM; for inhibition at 32 µM: read-out: hDNMT 3A inhibition, Inhibition (%) 32 μM
T1 construct: The human C-terminal DNMT3A (623-908a.a.); made in house
Source text: hDNMT3A enzyme inhibition was adapted from the restriction-based fluorescence assay protocol as described in the literature (Ceccaldi et al. Chem Bio Chem 2011, 12, 1337-1345). Briefly, a 5′-labelled biotin oligonucleotide is hybridized to its complementary strand labelled with 6-carboxyfluorescein at the 3′-end into a 384 well microplate (black Optiplates; Perkin Elmer) pre-coated with avidin. The duplex contains a unique CpG site overlapping with a restriction site of a methylation sensitive restriction enzyme. The human C-terminal DNMT3A (623-908a.a.), produced as described in (Gros et al. Nucl. Acids Res. 2013, 41(19):e185), was added in each well (200 ng/well) and mixed with the chemical compounds at desired concentrations and freshly prepared SAM (20 μM final concentration) to start the reaction in a total volume of 50 μL. After 1 hour incubation at 37° C. each well were washed three times with PBS, Tween-20 0.05%, NaCl (500 mM) and three more times with PBST. Specific fluorescent signals were detected with the methylation-sensitive restriction enzyme HpyCH4IV (NEB) as described and measured on a Perkin Elmer Envision detector. The percentage of inhibition is reported. The formula used to calculate the percentage of inhibition is [(X−Y)/X]×100, where X is the signal determined in the absence of the inhibitor and Y is the signal obtained in the presence of the inhibitor. The concentration at which 50% of efficacy of inhibition is observed (EC50) was determined by analysis of a concentration range of the tested compound in triplicates. The non-linear regression fittings with sigmoidal dose-response (variable slope) were performed with GraphPad Prism 4.03 (GraphPad Software).

[2] = test system: luciferase reporter gene under control of methylated CMV promoter in KG-1 cells; assay: CMV-luc reexpression in KG-1 cells; format: cell-based, human; conditions: for Induction Fold (IF) of luciferase gene reporter in KG-1 CMV-Luc: 24 h, vs DMSO; for IF-24 h, KG1 CMV-Luc model: at 5 μM, 24 h (Table 5)
Method: KG-1 cells were stably transfected with the firefly luciferase reporter gene (luc+ from pGL3; Promega) under the control of the cytomegalovirus (CMV) promoter (from pEGFP-N1; Clontech Laboratories Inc.) partially methylated (50%). 20,000 cells per well were seeded in a 96-well plate. After 24 h incubation in the presence of the test compound or solvant (DMSO), the induction of the promoter was measured by quantification of the luciferase signal with the Brite-lite assay system (PerkinElmer) according to the manufacturer's protocol. The luminescence was measured on an EnVision multilabel plate reader (PerkinElmer), and the data are expressed as the fold induction as compared with the DMSO control. The mean of three experiments and the standard error is reported.

[3] = test system: P16 promoter in colon cancer cells HCT116; assay: C5 DNA methylation analysis of CDKN2A (P16) promoter by COBRA; format: cell-based, human; conditions: at 0.1 μM
Method: Cancer cell lines (colon HCT116 or leukaemia KG1) were treated with the compounds as indicated in the Data Tables and then analysed as following.
DNA was isolated from cultured cells using the DNeasy Blood and Tissue Kit according to the manufacturer's specifications (Qiagen). DNA bisulphite conversion was performed on 2 μg of DNA using the EZ DNA Methylation-Gold Kit according to the manufacturer's specifications (Zymo Research) and bisulfited DNA was eluted with 10 μL of water.
Two different techniques were used to analyse the DNA methylation profile after bisulfite conversion of genomic DNA: (A) cloning and sequencing or (B) COBRA. The primers for each promoter are specified in Table 4.
This technique is a variation of bisulfite sequencing and combines bisulfite conversion based polymerase chain reaction with restriction digestion. DNA methylation levels are easily and quickly measured at fewer CpG sites than bisulfite-cloning-sequencing.
DNA amplification was set up with 100 ng eluted bisulfited DNA in 50 μL PCR reaction containing 1×PCR buffer, 2.5 mM MgCl2, 0.3 mM dNTPs, 400 nM each primer and 1.25 units EpiTaq HS (Takara) on C1000 Touch™ thermal cycler by 98° C. for 10 sec, 55° C. for 30 sec, 72° C. for 30 sec×40 cycles. 20 μL of PCR amplicons were digested in 30 μL by 2 units of BsiEI at 60° C. for 90 min. DNA fragments were migrated by 2% agarose gel electrophoresis and each band was quantified by Image Lab Software v2.0 (BioRad Laboratories).

[4] = test system: HCT116 (colorectal cancer); assay: Anti-proliferative activity (ATPLite); format: cell-based; conditions: Homo sapiens, HCT-116; daily treatment, cell viability by ATPLite; read-out: Antiproliferative activity: IC50 (μM) HCT116 (colorectal cancer)
Method: (§1) To measure the anti-proliferative properties of tested molecules, 2×10^4 cells are seeded at day 0 in a 96 wells plate. The compounds to be tested, stored at −20° C. as 10^−2 M stock solution in 100% DMSO, are freshly diluted on day 1 in the cell medium, before adding a dose range of 3.2 nM to 10 μM to the cells. Cells are treated everyday and cell viability assessed after 3 days or 7 days of treatment. The cell viability is assessed using the ATPLite kit from Perkin (ATPlite 1 Step Luminescence Assay System, ref 3016739), following the provider instructions. The raw data are analyzed with GraphPad Prism software (v4.03) to generate IC50 values corresponding to the compound concentrations giving 50% reduction in cell viability. The values presented are the mean results of at least two independent experiments. The standard errors are indicated.

[5] = test system: KG-1 (leukemia); assay: Anti-proliferative activity (ATPLite); format: cell-based; conditions: Homo sapiens; daily treatment, cell viability by ATPLite; read-out: Antiproliferative activity: IC50 (μM) KG-1 (leukemia)
Method: as §1

[6] = test system: WM266-4 (melanoma); assay: Anti-proliferative activity (ATPLite); format: cell-based; conditions: Homo sapiens, WM 266-4; two treatments instead of three; cell viability by ATPLite; read-out: Antiproliferative activity: IC50 (μM) WM266-4 (melanoma)
Method: as §1

[7] = concentration at which 50% of efficacy of inhibition is observed, read-out: EC50 (μM), hDNMT 3A inhibition
[8] = interval line below the EC50 of the same compound, read-out: EC50 (μM), range given

T1 sequence (Q9Y6K1 627-912 limits assumed): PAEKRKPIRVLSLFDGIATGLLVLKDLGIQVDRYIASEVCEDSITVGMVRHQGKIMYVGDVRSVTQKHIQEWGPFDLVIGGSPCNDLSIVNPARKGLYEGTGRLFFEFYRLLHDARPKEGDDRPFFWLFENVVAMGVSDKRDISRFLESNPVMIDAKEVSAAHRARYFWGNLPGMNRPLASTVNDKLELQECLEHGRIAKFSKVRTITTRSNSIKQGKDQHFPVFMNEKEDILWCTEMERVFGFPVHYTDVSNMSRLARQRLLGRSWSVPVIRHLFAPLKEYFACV

| Structure (SMILES) | EC50 [1, 7] | inhibition at 10 µM [1] | inhibition at 32 µM [1] | Induction Fold (IF) of luciferase gene reporter in KG-1 CMV-Luc ([2]; 0.1 μM) | Induction Fold (IF) of luciferase gene reporter in KG-1 CMV-Luc ([2]; 0.32 μM) | Induction Fold (IF) of luciferase gene reporter in KG-1 CMV-Luc ([2]; 1 μM) | Induction Fold (IF) of luciferase gene reporter in KG-1 CMV-Luc ([2]; 3.2 μM) | Induction Fold (IF) of luciferase gene reporter in KG-1 CMV-Luc ([2]; 5 μM) | Induction Fold (IF) of luciferase gene reporter in KG-1 CMV-Luc ([2]; 10 μM) | IF-24 h, KG1 CMV-Luc model [2] | Demethylation (COBRA) P16/HCT116 ([3]; after 7 days) | IC50 [4] | IC50 [5] | IC50 [6] | EC50 [1, 8] | Demethylation (COBRA) P16/HCT116 ([3]; after 3 days) | Demethylation (COBRA) P16/HCT116 ([3]; after 21 days) |
| --- | --- | --- | --- | --- | --- | --- | --- | --- | --- | --- | --- | --- | --- | --- | --- | --- | --- |
| CCN(CC)CCCNC(=S)N1CCc2cc3c4cc2[C@@H]1Cc1ccc(OC)c(c1)Oc1ccc(cc1)C[C@H]1c2c(cc(OC)c(c2O4)O3)CCN1C(=S)NCCCN(CC)CC [Product 41] | 0.557 to 0.91 µM | 94% | 95% | 1.1 ± 0.1 | 1.1 ± 0.1 | 1.3 ± 0.1 | 2.0 ± 0.3 | 2.8 ± 0.2 | 3.1 ± 0.4 | 3.3 ± 0.1 | 0% after 7 days (at 0.1 μM) | 0.96 ± 0.02 µM | 5.3 ± 0.4 µM | 4.4 ± 1.5 µM | – | – | – |
| CNC(=O)N1CCc2cc(OC)c3c4c2[C@@H]1Cc1ccc(cc1)Oc1cc(ccc1OC)C[C@H]1c2cc(c(cc2CCN1C)O3)O4 [Product 44] | 3.96 µM | 82% | 96% | 1.1 ± 0.1 | 1.1 ± 0.1 | 1.3 ± 0.1 | 2.0 ± 0.1 | 2.5 ± 0.9 | 9.0 ± 1.3 | 5.9 ± 0.2 | 0% after 7 days (at 0.1 μM) | 1.88 ± 0.03 µM | 4.2 ± 0.05 µM | 12 ± 3 µM | 3.04 to 5.17 µM | – | – |
| COc1ccc2cc1Oc1ccc(cc1)C[C@@H]1NCCc3cc(OC)c4c(c31)Oc1cc3c(cc1O4)CCN(C)[C@H]3C2 [Trilobine (1), trilobine] | 3.8 µM | 88% | 96% | 1.1 ± 0.1 | 1.9 ± 1.2 | 2.6 ± 1.4 | 3.5 ± 1.1 | 6.4 ± 0.1 | – | 5.8 ± 0.6 | −52% after 7 days | 1.19 ± 0.02 µM | 2.1 ± 0.8 µM | 3.2 ± 0.8 µM | 3.21 to 4.49 µM | −37% after 3 days | −53% after 21 days |
